From ChEMBL document CHEMBL5137096, “Antiviral Profiling of C-18- or C-19-Functionalized Semisynthetic Abietane Diterpenoids” (J Nat Prod, 2022)
Calls of active or inactive are those of the source. No cut-off for these calls is given here.

Legend:
Vero C1008 = assay: Cytotoxicity against African green monkey Vero E6 cells measured after 72 hrs by MTT assay; assay type: toxicity, cell-based; conditions: chlorocebus sabaeus, vero c1008, 72 h
BHK-21 = assay: Cytotoxicity against golden hamster BHK-21 cells measured after 6 days by MTT assay; assay type: toxicity, cell-based, Mesocricetus auratus; conditions: bhk-21, 144 h, time 6 day
Zika virus [1] = assay type: functional, Vero E6; conditions: time 72 hrs
Zika virus [2] = assay type: functional, Vero E6; conditions: time 72 hrs; remark: listed apart in the source
Chikungunya virus = assay type: functional, Vero E6; conditions: time 72 hrs
dengue virus type 2 [3] = assay type: functional, Vero E6; conditions: time 72 hrs
Human alphaherpesvirus 1 = assay type: functional, 29R, Vero E6; conditions: time 72 hrs
dengue virus type 2 [4] = assay: Antiviral activity against DENV2 infected in hamster BHK-21 cells assessed as inhibition of plaque formation by measuring reduction in PFU per well incubated for 6 days by crystal violet staining based assay; assay type: functional; conditions: time 6 day
Zika virus [5] = assay: Antiviral activity against ZIKV Col infected in African Green monkey Vero cells assessed as reduction in viral protein production at 3.1 to 25 ug/ml by ELISA relative control; assay type: functional; design: scale not given: the % may be the effect or the level left; conditions: dose 3.1-25 µg/ml; at 3.1 to 25 µg/mL
Zika virus [6] = assay: Antiviral activity against ZIKV IMT17; assay type: functional, organism-based
Zika virus [7] = assay: Antiviral activity against ZIKV Col infected in African Green monkey Vero cells assessed as inhibition of viral replication by measuring reduction in viral genomic copies at 12.5 to 25 ug/ml by qRT-PCR analysis; assay type: functional, organism-based; conditions: dose 12.5-25 µg/ml

CC(C)c1ccc2c(c1O)CC[C@H]1[C@](C)(C(=O)O)CCC[C@]21C
CC100 (Vero C1008): > 25 µg/mL | CC100 (BHK-21): > 25 µg/mL | EC (Zika virus [1]): 25 µg/mL | EC (Zika virus [2]): 12.5 µg/mL | EC (Chikungunya virus): 25 µg/mL

CC(C)c1ccc2c(c1)CC[C@H]1C(C)(C(=O)O)CCC[C@]21C (stereo not given in full)
CC100 (Vero C1008): 50 µg/mL | CC100 (BHK-21): 50 µg/mL | EC (Zika virus [1]): 12.5 µg/mL | EC (dengue virus type 2 [3]): 25 µg/mL | EC (Human alphaherpesvirus 1): 25 µg/mL | EC (Chikungunya virus): 12.5 µg/mL

CC(C)c1cc2c(cc1O)[C@@]1(C)CCC[C@@](C)(C(=O)O)[C@@H]1CC2
CC100 (Vero C1008): 25 µg/mL | CC100 (BHK-21): 12.5 µg/mL | EC (Human alphaherpesvirus 1): 12.5 µg/mL | EC (Chikungunya virus): 25 µg/mL

CC(C)c1ccc2c(c1O)CC[C@H]1[C@](C)(CO)CCC[C@]21C
CC100 (Vero C1008): > 25 µg/mL | CC100 (BHK-21): > 25 µg/mL | EC (Zika virus [1]): 12.5 µg/mL | EC (Chikungunya virus): 12.5 µg/mL

COC(=O)[C@]1(C)CCC[C@]2(C)c3cc(O)c(C(C)C)cc3CC[C@@H]12
CC100 (Vero C1008): 50 µg/mL | CC100 (BHK-21): 25 µg/mL | EC (Human alphaherpesvirus 1): 12.5 µg/mL | EC (Chikungunya virus): 25 µg/mL

CC(C)c1ccc2c(c1)CC[C@H]1C(C)(CO)CCC[C@]21C (stereo not given in full)
CC100 (Vero C1008): > 50 µg/mL | CC100 (BHK-21): > 50 µg/mL | EC (Zika virus [1]): 12.5 µg/mL | EC (dengue virus type 2 [3]): 25 µg/mL | EC (dengue virus type 2 [4]): 12.5 µg/mL | EC (Chikungunya virus): 25 µg/mL

COC(=O)[C@]1(C)CCC[C@]2(C)c3cc(C(C)=O)c(C(C)C)cc3CC[C@@H]12
CC100 (Vero C1008): > 50 µg/mL | CC100 (BHK-21): 25 µg/mL | EC (Human alphaherpesvirus 1): 12.5 µg/mL | EC (Chikungunya virus): 25 µg/mL

COC(=O)[C@@]1(C)CCC[C@]2(C)c3cc(O)c(C(C)C)cc3CC[C@@H]12
CC100 (Vero C1008): > 50 µg/mL | CC100 (BHK-21): 50 µg/mL | EC (Zika virus [1]): 25 µg/mL | EC (Zika virus [2]): 12.5 µg/mL | EC (dengue virus type 2 [3]): 25 µg/mL | EC (dengue virus type 2 [4]): 12.5 µg/mL | EC (Chikungunya virus): 12.5 µg/mL

CC(C)c1cc2c(cc1O)[C@@]1(C)CCC[C@](C)(CO)[C@@H]1CC2=O
CC100 (Vero C1008): > 25 µg/mL | CC100 (BHK-21): 25 µg/mL | EC (Human alphaherpesvirus 1): 25 µg/mL | EC (Chikungunya virus): 25 µg/mL

COC(=O)[C@@]1(C)CCC[C@]2(C)c3cc(OC(C)=O)c(C(C)C)cc3CC[C@@H]12
CC100 (Vero C1008): 25 µg/mL | CC100 (BHK-21): 25 µg/mL | EC (Zika virus [1]): 12.5 µg/mL | EC (dengue virus type 2 [3]): 12.5 µg/mL | EC (Chikungunya virus): 25 µg/mL

COC(=O)[C@]1(C)CCC[C@]2(C)c3ccc(C(C)C)cc3CC[C@@H]12
CC100 (Vero C1008): > 50 µg/mL | CC100 (BHK-21): 50 µg/mL | EC (Zika virus [1]): 6.2 µg/mL | EC (Zika virus [2]): 12.5 µg/mL | EC (Human alphaherpesvirus 1): 25 µg/mL

CC(C)c1cc2c(cc1O)[C@@]1(C)CCC[C@@](C)(CO)[C@@H]1CC2 [18-HYDROXYFERRUGINOL]
CC100 (Vero C1008): 50 µg/mL | CC100 (BHK-21): 50 µg/mL | EC (Zika virus [1]): 25 µg/mL | EC (Zika virus [2]): 12.5 µg/mL | EC (dengue virus type 2 [3]): 25 µg/mL | EC (dengue virus type 2 [4]): 3.1 µg/mL | EC (Human alphaherpesvirus 1): 12.5 µg/mL | EC (Chikungunya virus): 12.5 µg/mL

CC(C)c1cc2c(cc1O)[C@@]1(C)CCCC(C)(C)[C@@H]1CC2 [FERRUGINOL]
CC100 (Vero C1008): > 50 µg/mL | CC100 (BHK-21): > 50 µg/mL | EC (Zika virus [1]): 12.5 µg/mL | EC (dengue virus type 2 [3]): 25 µg/mL | EC (dengue virus type 2 [4]): 12.5 µg/mL | EC (Chikungunya virus): 25 µg/mL

COC(=O)[C@@]1(C)CCC[C@]2(C)c3cc(OC(C)=O)c(C(C)C)cc3C(=O)C[C@@H]12
CC100 (Vero C1008): 50 µg/mL | CC100 (BHK-21): 25 µg/mL | EC (Zika virus [1]): 25 µg/mL | EC (Chikungunya virus): 25 µg/mL

Nc1nc2c(ncn2COCCO)c(=O)[nH]1 [ACYCLOVIR]
EC (Human alphaherpesvirus 1): 1.5 µg/mL

CC(C)c1cc2c(cc1O)[C@@]1(C)CCC[C@@](C)(CO)[C@@H]1CC2=O
CC100 (Vero C1008): 25 µg/mL | CC100 (BHK-21): 12.5 µg/mL | EC (Zika virus [1]): 12.5 µg/mL | EC (dengue virus type 2 [3]): 12.5 µg/mL | EC (Human alphaherpesvirus 1): 12.5 µg/mL | EC (Chikungunya virus): 25 µg/mL

CC(C)c1cc2c(cc1O)[C@@]1(C)CCC[C@](C)(C(=O)O)[C@@H]1CC2=O
CC100 (Vero C1008): 25 µg/mL | CC100 (BHK-21): 12.5 µg/mL

CC(C)c1cc2c(cc1O)[C@@]1(C)CCC[C@](C)(CO)[C@@H]1CC2
CC100 (Vero C1008): 25 µg/mL | CC100 (BHK-21): 12.5 µg/mL | EC (Zika virus [1]): 12.5 µg/mL | EC (Human alphaherpesvirus 1): 12.5 µg/mL | EC (Chikungunya virus): 25 µg/mL

COC(=O)[C@]1(C)CCC[C@]2(C)c3ccc(C(C)C)c(O)c3CC[C@@H]12
CC100 (Vero C1008): > 25 µg/mL | CC100 (BHK-21): > 25 µg/mL | EC (Zika virus [1]): 12.5 µg/mL | EC (dengue virus type 2 [3]): 25 µg/mL | EC (dengue virus type 2 [4]): 3.1 µg/mL | EC (Human alphaherpesvirus 1): 12.5 µg/mL | EC (Chikungunya virus): 12.5 µg/mL

COC(=O)[C@]1(C)CCC[C@]2(C)c3cc(OC(C)=O)c(C(C)C)cc3CC[C@@H]12
CC100 (Vero C1008): 50 µg/mL | CC100 (BHK-21): 50 µg/mL | EC (Zika virus [2]): 12.5 µg/mL | EC (Human alphaherpesvirus 1): 12.5 µg/mL | EC (Chikungunya virus): 25 µg/mL

CC(C)c1cc2c(cc1O)[C@@]1(C)CCC[C@@](C)(C(=O)O)[C@@H]1CC2=O
CC100 (Vero C1008): > 50 µg/mL | CC100 (BHK-21): 50 µg/mL | EC (Human alphaherpesvirus 1): 25 µg/mL | EC (Chikungunya virus): 25 µg/mL

NC(=O)c1ncn([C@@H]2O[C@H](CO)[C@@H](O)[C@H]2O)n1 [RIBAVIRIN]
CC100 (Vero C1008): > 160 µg/mL | CC100 (BHK-21): > 160 µg/mL

CC(C)c1cc2c(cc1O)[C@@]1(C)CCC[C@](C)(C(=O)O)[C@@H]1CC2 [LAMBERTIC ACID]
CC100 (Vero C1008): > 50 µg/mL | CC100 (BHK-21): > 50 µg/mL | EC (Zika virus [1]): 25 µg/mL | EC (Zika virus [2]): 25 µg/mL | EC (dengue virus type 2 [3]): 25 µg/mL | EC (Human alphaherpesvirus 1): 25 µg/mL | EC (Chikungunya virus): 25 µg/mL

CC(C)c1cc2c(cc1O)[C@@]1(C)CCC[C@@](C)(CN3C(=O)c4ccccc4C3=O)[C@@H]1CC2
CC100 (Vero C1008): > 50 µg/mL | CC100 (BHK-21): > 50 µg/mL | EC (Zika virus [1]): 6.2 µg/mL | EC (Zika virus [2]): 3.1 µg/mL | EC (dengue virus type 2 [3]): 25 µg/mL | EC (dengue virus type 2 [4]): 12.5 µg/mL | EC (Human alphaherpesvirus 1): 12.5 µg/mL | EC (Chikungunya virus): 6.2 µg/mL | Activity (Zika virus [5]): <50% | EC50 (Zika virus [6]): 7.7 µM | inhibition (Zika virus [7]): Active

COC(=O)[C@]1(C)CCC[C@]2(C)c3cc(OC(C)=O)c(C(C)C)cc3C(=O)C[C@@H]12
CC100 (Vero C1008): 25 µg/mL | CC100 (BHK-21): 25 µg/mL | EC (Human alphaherpesvirus 1): 25 µg/mL

COC(=O)[C@]1(C)CCC[C@]2(C)c3cc(O)c(C(C)C)cc3C(=O)C[C@@H]12
CC100 (Vero C1008): 50 µg/mL | CC100 (BHK-21): 25 µg/mL | EC (Human alphaherpesvirus 1): 25 µg/mL | EC (Chikungunya virus): 25 µg/mL

COC(=O)[C@@]1(C)CCC[C@]2(C)c3cc(C(C)=O)c(C(C)C)cc3CC[C@@H]12
CC100 (Vero C1008): > 50 µg/mL | CC100 (BHK-21): 50 µg/mL | EC (Zika virus [1]): 25 µg/mL | EC (Zika virus [2]): 25 µg/mL | EC (dengue virus type 2 [3]): 25 µg/mL | EC (Human alphaherpesvirus 1): 25 µg/mL | EC (Chikungunya virus): 25 µg/mL

COC(=O)[C@@]1(C)CCC[C@]2(C)c3cc(O)c(C(C)C)cc3C(=O)C[C@@H]12
CC100 (Vero C1008): 25 µg/mL | CC100 (BHK-21): 12.5 µg/mL | EC (dengue virus type 2 [3]): 12 µg/mL | EC (Chikungunya virus): 12.5 µg/mL
